Measured values reported in US8247211B2, “Glycopeptide antibiotics” (American Cyanamid Company, priority 2001, dated 2012).
In brackets after ≈: the same amount, converted by molar mass.

What was measured:
Test in all cases: In vitro antibacterial evaluation: minimum inhibitory concentration (MIC), broth dilution method
Format in all cases: cell-based
Enterococcus sp. = tested on: Enterococcus sp.
Procedure: (§1) The minimum inhibitory concentration (MIC), the lowest concentration of the antibiotic which inhibits growth of the test organism, is determined by the broth dilution method using Muller-Hinton II […] (Baltimore Biological Laboratories) following the recommendations of the National Committee for Clinical Laboratory Standards [Methods for dilution antimicrobial susceptibility tests for bacteria that grow aerobically, approved standard M7-A2, National Committee for Clinical Laboratory Standards, Villanova, Pa].
(§2) An inoculum level of 5×10^5 CFU/mL, and a range of antibiotic concentrations (64-0.06 μg/mL) is used. […] The test organisms include a spectrum of Gram-positive bacteria comprised of Staphylococcus sp., Streptococcus sp. and Enterococcus sp. These organisms include recent clinical isolates that are resistant to methicillin, penicillin and/or vancomycin.

Escherichia coli = tested on: Escherichia coli
Procedure: as §1, §2

Staphylococcus sp. = settings: broth dilution, 18 hours at 35° C.
Procedure: as §1, §2

Streptococcus sp. = tested on: Streptococcus sp.
Procedure: as §1, §2

MIC Enterococcus faecalis (ATCC 29212) (Enterococcus sp.; strain ATCC 29212): 2 µg/mL (≈ 1.4 µM)
MIC Enterococcus faecalis (GC 2242) (Enterococcus sp.; strain GC 2242): 2 µg/mL (≈ 1.4 µM)
MIC Enterococcus faecium (GC 2243) (Enterococcus sp.; strain GC 2243): 2 µg/mL (≈ 1.4 µM)
MIC Enterococcus faecalis (GC 2691) (Enterococcus sp.; strain GC 2691): 2 µg/mL (≈ 1.4 µM)
MIC Enterococcus faecalis (GC 3059) (Enterococcus sp.; strain GC 3059): 4 µg/mL (≈ 2.8 µM)
MIC Enterococcus faecalis (GC 4552) (Enterococcus sp.; strain GC 4552): 2 µg/mL (≈ 1.4 µM)
MIC Enterococcus faecalis (GC 4553) (Enterococcus sp.; strain GC 4553): 4 µg/mL (≈ 2.8 µM)
MIC Enterococcus faecalis (GC 4554) (Enterococcus sp.; strain GC 4554): 4 µg/mL (≈ 2.8 µM)
MIC Enterococcus faecium (GC 4556) (Enterococcus sp.; strain GC 4556): 2 µg/mL (≈ 1.4 µM)
MIC Enterococcus faecium (GC 4557) (Enterococcus sp.; strain GC 4557): 2 µg/mL (≈ 1.4 µM)
MIC Enterococcus avium (GC 4558) (Enterococcus sp.; strain GC 4558): 4 µg/mL (≈ 2.8 µM)
MIC Enterococcus faecalis (GC 6189) (Enterococcus sp.; strain GC 6189): 2 µg/mL (≈ 1.4 µM)
MIC Escherichia coli (ATCC 25922) (Escherichia coli; strain ATCC 25922): 32 µg/mL (≈ 22.4 µM)
MIC Escherichia coli (GC 4559) (Escherichia coli; strain GC 4559): 32 µg/mL (≈ 22.4 µM)
MIC Coagulase Negative Staphylococcus (GC 4547) (Staphylococcus sp.; 5×10^5 CFU/mL): 1 µg/mL (≈ 0.7 µM)
MIC Coagulase Negative Staphylococcus (GC 4548) (Staphylococcus sp.; 5×10^5 CFU/mL): 0.25 µg/mL (≈ 0.175 µM)
MIC Coagulase Negative Staphylococcus (GC 4549) (Staphylococcus sp.; 5×10^5 CFU/mL): 0.12 µg/mL (≈ 0.0839 µM)
MIC Coagulase Negative Staphylococcus (GC 4551) (Staphylococcus sp.; 5×10^5 CFU/mL): 0.5 µg/mL (≈ 0.35 µM)
MIC Coagulase Negative Staphylococcus (GC 6257) (Staphylococcus sp.; 5×10^5 CFU/mL): 0.25 µg/mL (≈ 0.175 µM)
MIC Staphylococcus aureus (ATCC 29213) (Staphylococcus sp.; 5×10^5 CFU/mL): 2 µg/mL (≈ 1.4 µM)
MIC Staphylococcus aureus (GC 1131) (Staphylococcus sp.; 5×10^5 CFU/mL): 1 µg/mL (≈ 0.7 µM)
MIC Staphylococcus aureus (GC 3051) (Staphylococcus sp.; 5×10^5 CFU/mL): 1 µg/mL (≈ 0.7 µM)
MIC Staphylococcus aureus (GC 3053) (Staphylococcus sp.; 5×10^5 CFU/mL): 1 µg/mL (≈ 0.7 µM)
MIC Staphylococcus aureus (GC 4541) (Staphylococcus sp.; 5×10^5 CFU/mL): 0.5 µg/mL (≈ 0.35 µM)
MIC Staphylococcus aureus (GC 4542) (Staphylococcus sp.; 5×10^5 CFU/mL): 0.5 µg/mL (≈ 0.35 µM)
MIC Staphylococcus aureus (GC 4544) (Staphylococcus sp.; 5×10^5 CFU/mL): 4 µg/mL (≈ 2.8 µM)
MIC Staphylococcus aureus (GC 4545) (Staphylococcus sp.; 5×10^5 CFU/mL): 1 µg/mL (≈ 0.7 µM)
MIC Staphylococcus aureus-SMITH (GC 4543) (Staphylococcus sp.; 5×10^5 CFU/mL): 1 µg/mL (≈ 0.7 µM)
MIC Staphylococcus aureus (ATCC 29213) (Staphylococcus sp.; strain ATCC 29213): 2 µg/mL (≈ 1.4 µM)
MIC Staphylococcus aureus (GC 1131) (Staphylococcus sp.; strain GC 1131): 1 µg/mL (≈ 0.7 µM)
MIC Staphylococcus aureus (GC 3051) (Staphylococcus sp.; strain GC 3051): 1 µg/mL (≈ 0.7 µM)
MIC Staphylococcus aureus (GC 3053) (Staphylococcus sp.; strain GC 3053): 1 µg/mL (≈ 0.7 µM)
MIC Staphylococcus aureus (GC 4541) (Staphylococcus sp.; strain GC 4541): 0.5 µg/mL (≈ 0.35 µM)
MIC Staphylococcus aureus (GC 4542) (Staphylococcus sp.; strain GC 4542): 0.5 µg/mL (≈ 0.35 µM)
MIC Staphylococcus aureus-SMITH (GC 4543) (Staphylococcus sp.; strain GC 4543): 1 µg/mL (≈ 0.7 µM)
MIC Staphylococcus aureus (GC 4544) (Staphylococcus sp.; strain GC 4544): 4 µg/mL (≈ 2.8 µM)
MIC Staphylococcus aureus (GC 4545) (Staphylococcus sp.; strain GC 4545): 1 µg/mL (≈ 0.7 µM)
MIC Coagulase Negative Staphylococcus (GC 4547) (Staphylococcus sp.; strain GC 4547): 1 µg/mL (≈ 0.7 µM)
MIC Coagulase Negative Staphylococcus (GC 4548) (Staphylococcus sp.; strain GC 4548): 0.25 µg/mL (≈ 0.175 µM)
MIC Coagulase Negative Staphylococcus (GC 4549) (Staphylococcus sp.; strain GC 4549): 0.12 µg/mL (≈ 0.0839 µM)
MIC Coagulase Negative Staphylococcus (GC 4551) (Staphylococcus sp.; strain GC 4551): 0.5 µg/mL (≈ 0.35 µM)
MIC Coagulase Negative Staphylococcus (GC 6257) (Staphylococcus sp.; strain GC 6257): 0.25 µg/mL (≈ 0.175 µM)
MIC Streptococcus pneumoniae (ATCC 6301) (Streptococcus sp.; strain ATCC 6301): <0.06 µg/mL
MIC Streptococcus pneumoniae (GC 1894) (Streptococcus sp.; strain GC 1894): <0.06 µg/mL
MIC Streptococcus pyogenes (GC 4563) (Streptococcus sp.; strain GC 4563): <0.06 µg/mL
MIC Streptococcus agalactiae (GC 4564) (Streptococcus sp.; strain GC 4564): <0.06 µg/mL
MIC Streptococcus pneumoniae (GC 4565) (Streptococcus sp.; strain GC 4565): <0.06 µg/mL
SMILES: CSc1ccc(C2OCC3OC(OC4C(CO)OC(Oc5ccc(CC6NC(=O)C(C(C)c7ccccc7)NC(=O)CNC(=O)C(CO)NC(=O)C(C(O)C7CNC(=N)N7C7OC(CO)C(O)C(O)C7O)NC(=O)C(C(O)C7CNC(=N)N7)NC6=O)cc5)C(O)C4O)C(O)C(O)C3O2)cc1 (stereo not shown) [Example 144]
MIC Staphylococcus haemolyticus (GC 4546) (Staphylococcus sp.; 5×10^5 CFU/mL): 1 µg/mL (≈ 0.7 µM)
MIC Staphylococcus haemolyticus (GC 4546) (Staphylococcus sp.; strain GC 4546): 1 µg/mL (≈ 0.7 µM)
